The record followed here is US6911435B1 (Can-Fite Biopharma Ltd., priority 1997, dated 2005).

In one data set the test system is K562 cells. The data set can be described thus: K562 cell proliferation with adenosine and theophylline. Type of data set: cell-based, human. As to the method: (§1) During the last 6 hours of incubation, each well was pulsed with 1 μCi[^3H]-Thymidine. The cells were harvested and the [^3H]-Thymidine uptake was determined in an LKB liquid scintillation counter (LKB, Piscataway, N.J., USA).
Culture conditions were identical to those described above.

The subject of data set [1] is white blood cells. The data set can be described thus: Example 2 in vivo: white blood cell count after adenosine and/or cyclophosphamide. Details: species or system C57BL6/J mice. The note with it: i.p. The method, then: (§2) On day 6 the mice were injected intraperitoneally with 1 ml saline. • 4. chemotherapy group: daily injection of 1 ml saline for 5 consecutive days. On day 6 the mice were injected intraperitoneally with cyclophosphamide.
[…] Proliferation capacity of bone marrow: bone marrow was aspirated from the femur and pooled for each tested group. The cells were separated, counted and the proliferative capacity was evaluated by the [^3H]-Thymidine incorporation assay as described above.

Data set [2] deals with bone marrow cells. The data set can be described thus: Example 2: proliferation capacity of bone marrow from treated mice ([3H]-Thymidine). Type of data set: in vivo, C57BL6/J mice. The conditions noted are these: after 24 hours. As to the method:
as §1, §2
Five mice of each group were sacrificed […] and 96 hrs following the treatments and two parameters were evaluated: • 1. complete blood cell count. • 2. Proliferation capacity of bone marrow: bone marrow was aspirated from the femur and pooled for each tested group. The cells were separated, counted and the proliferative capacity was evaluated by the [^3H]-Thymidine incorporation assay as described above.

The subject of the next data set is blood cells. Briefly: Example 3 in vivo: blood cell parameters after adenosine and/or chemotherapy. The conditions noted are these: for white blood cell count versus control: Example 3, in words. As to the method:
40 C57BL6/J were divided into 4 groups, each of which was treated (by intraperitoneal injection) according to one of the following protocols: • 1. Control group: 6 days of treatment by daily injection of 1 ml saline. • 2. Chemotherapy group: daily injection of 1 ml saline for 5 consecutive days. On day 6 the mice were injected intraperitoneally with cyclophosphamide. • 3. […] On day 6 the mice were injected intraperitoneally with 1 ml saline. • 4.
The following parameters were evaluated for each group: • i. Red blood cell (RBC) count. • ii. Hemoglobin (HGB) level. • iii. White blood cell count. • iv. Proportion of the three major groups of white blood cells: Lymphocytes (LYM), Monocytes (MID) and Granulocytes (GRAN). Results

The next data set has as its system B-16-F10 melanoma cells. The data set can be described thus: Example 4 in vivo: B-16-F10 melanoma lung tumor foci. Details: species or system C57BL6/J mice. The note with it: for No. of foci (melanoma tumor foci in the lung): 18 days, adenosine 1 ml 5 mM daily i.p.
The subject of data set [3] is white blood cells. The data set can be described thus: Example 5 in vivo: white blood cell count and percentage of granulocytes. Details: species or system C57BL6/J mice. The method, then: 50 C57BL6/J mice were divided into 5 groups of 10 mice each, which were treated by intraperitoneal injection with one of the following treatments: • 1. Control group: 6 days of treatment by daily injection of 1 ml saline. • 2. […] Chemotherapy group: daily injection of 1 ml saline for 5 consecutive days. On day 6 the mice were injected intraperitoneally with cyclophosphamide. • 5. […] On day 6 the mice were injected intraperitoneally with cyclophosphamide. Results

The test system of another data set is Nb2-11C lymphoma cells. The data set can be described thus: Cell count assay, proliferation of Nb2-11C lymphoma cells. It counts as cell-based, rat. The conditions noted are these: adenosine 1-20 μM, 48 hours. As to the method: The Nb2-11C cells were synchronized in the GO/Gl phase prior to cultivation with the CM by transferring the cells to horse serum (Biological Industries, Beit Haemek, Israel) supplemented medium for overnight incubation. […] Cell proliferation was initiated by the addition of Human Growth Hormone (Biotechnology General, Rehovot, Israel) to a final concentration of 2 ng/ml. The cultures were incubated at 37° C. at 5% CO2 and counted in Coulter Counter 48 hours later.

Data set [4] deals with leukemia, lymphoma and the solid tumor cell lines. Briefly: [3H]-Thymidine incorporation assay, tumor cell lines. The note with it: adenosine 4 μM, FIG. 2. Type of data set: cell-based, human, murine.
From the text: Tumor cell lines from human (K562 myeloid leukemia, Tib-180 erythroleukemia, LNCaP prostate carcinoma and MDA-MB468 breast adenocarcinoma), and murine (Yac lymphoma, B-16 melanoma) were used and were purchased from the American Type Tissue Culture Collection, Rockville. Nb2 11c rat lymphoma cells (Pines et al.^(19), were also used. The cells were routinely maintained in RPM medium containing 10% fetal calf serum. Twice a week the cells were transferred to a freshly prepared medium.
as §1

For data set [5], the system named is normal cells (bone marrow cells, fibroblasts, L-8 myoblast). Briefly: [3H]-Thymidine incorporation assay, normal cells. It counts as cell-based, mice, rat. The conditions noted are these: adenosine 4 μM, FIG. 2. The method, then:
As a control for tumor proliferating cells, two normal proliferating cell types were used i.e., bone marrow cells derived from the femur of C57BL/6J mice; fibroblasts derived from primary cultures of newborn rat skeletal muscle cells. The cells were prepared as previously, (Djaldetti, M., Sredni, B., Zigelman, R., Verber, M., and Fishman, P. Muscle cells produce a low molecular weight factor with anti-cancer activity. Clin. Exp. Matastasis, 14:189-196, 1996). Also used was the L-8 myoblast rat cell line which was purchased from the ATCC.
as §1
(In general: Incorporation of labelled thymidine or its analogues reports DNA synthesis.)

Data set [6] has as its system bone marrow cells. The data set can be described thus: Bone marrow cell proliferation in vitro (adenosine dose response, adenosine receptor antagonists). Type of data set: cell-based, C57BL/6J mice. The note with it: FIG. 3. As to the method:
as §1

The subject of a further data set is IL-12. The data set can be described thus: IL-12 production by peripheral blood mononuclear cells. It counts as cell-based, human. The note with it: 4 μM adenosine. As to the method: Mononuclear cells (MNC) were fractionated from heparinized blood of 10 healthy volunteers using Ficoll-Hypaque gradient. […] At the end of the incubation period the supernatant was collected, centrifuged and filtered through 0.22μ sterile filter and kept at −70° C. until assayed. The level of IL-12 in the supernatants was analyzed using a commercial kit of R&D System.

The subject of data set [7] is human peripheral blood NK cells. Briefly: NK activity of peripheral blood cells, 51Cr-release assay, K562 targets. The note with it: 4 μM adenosine, 18 hours preincubation. Type of data set: cell-based. As to the method: K562 cells were used as the targets (T) and were labeled with 100 μCi of Na2[^51Cr]O4 at 37° for 1 h. After extensive washing to remove the excess Cr, cells (1×10^4) were resuspended and mixed with the effector cells at the E:T ratio of […] in a volume of 200 μl using triplicate assays. After 4 h of incubation at 37° C. in 5% CO2, plates were centrifuged, and the supernatants were counted in a gamma counter (LKB). […] Spontaneous release was below 8% of the maximal release throughout this experiment.

For the next data set, the system named is NK cells. The data set can be described thus: NK activity of splenocytes from adenosine treated mice, Yac targets. It counts as in vivo, ICR mice. The note with it: 5 consecutive days 10 μM adenosine; two effector:target ratios; FIG. 8.
The mark [8] stands for this setting: adenosine where given 10 μM, cyclophosphamide where given on day 6.
[9] abbreviates: 5 μM adenosine group, daily i.p. 6 days.

Each structure is given as a SMILES string.

With `Cn1c(=O)c2[nH]cnc2n(C)c1=O` [theophylline, Theophylline], the “effect on the inhibitory effect of adenosine on tumor cell proliferation” value with K562 cells (theophylline 0.1 μM with 4 μM adenosine, K562) was “this inhibitory effect was neutralized”.
On to `O=P1(N(CCCl)CCCl)NCCCO1` (centres unmarked) [cyclophosphamide], for which, in the data set on white blood cells [1] (24 hours after treatment), the WBC count was 3.8 ± 0.18 × 10^6/ml. Further, the WBC count in the data set with white blood cells [1] (96 hours after treatment) is 3.62 ± 0.17 × 10^6/ml. In addition, in the data set on bone marrow cells [2], the “Bone Marrow Cell Proliferation” value came out at 434.5 ± 52.2 CPM. The “white blood cell count versus control” value in the data set on blood cells was “caused a reduction in the amount of white blood cells”. Further, in the data set with blood cells (mean±S.E.), the “% GRAN (granulocytes, % out of the number of white blood cells)” value worked out at 10.28 ± 1.59%; the “% LYM (lymphocytes, % out of the number of white blood cells)” value is on record as 81.94 ± 2.49%; the “% MID (monocytes, % out of the number of white blood cells)” value was 7.78 ± 0.92%; the “HGB (hemoglobin count)” value amounted to 14.88 ± 8.32 gram/100 ml. In the data set on B-16-F10 melanoma cells, the “No. of foci (melanoma tumor foci in the lung)” value was determined as 4.16 ± 1.42. In the data set with white blood cells [3] (setting [8]), this compound gave a GRAN of 7.70% and a WBC of 5.00 count × 10^3/I.
For the compound `Nc1ncnc2c1ncn2[C@@H]1O[C@H](CO)[C@@H](O)[C@H]1O` [adenosine], the “growth of Nb2-11c rat lymphoma cells (cell count)” value with Nb2-11C lymphoma cells was “markedly inhibited”. Moreover, the “proliferation of leukemia, lymphoma and solid tumor cell lines” value in data set [4] is reported as “induced proliferation inhibition”. Moreover, the “proliferation of the three tested normal cells” value in [5] is “stimulated the proliferation”. The “concentration of peak stimulatory activity on bone marrow cell proliferation” value in the data set on bone marrow cells [6] is “about 10 μM”. The “K562 tumor cell proliferation” value in the data set with K562 cells (adenosine 4 μM, FIG. 4) is “inhibited tumor cell proliferation”. For the same compound, the WBC count with white blood cells [1] (24 hours after treatment) is recorded as 9.37 ± 0.26 × 10^6/ml. The WBC count in the data set on white blood cells [1] (96 hours after treatment) is listed as 6.8 ± 0.73 × 10^6/ml. Further, the “Bone Marrow Cell Proliferation” value in the data set with bone marrow cells [2] came out at 1480.0 ± 68.5 CPM. Moreover, in the data set on blood cells, the “white blood cell count versus control” value was “boosted to levels above control”. Further, in the data set on blood cells (mean±S.E.), the “% GRAN (granulocytes, % out of the number of white blood cells)” value turned out to be 21.03 ± 2.75%; the “% LYM (lymphocytes, % out of the number of white blood cells)” value was determined as 65.57 ± 3.35%; the “% MID (monocytes, % out of the number of white blood cells)” value amounted to 13.4 ± 0.70%. Moreover, in the data set with blood cells (mouse, in vivo), the “HGB (hemoglobin count)” value was 14.03 ± 0.20 gram/100 ml. In the data set on B-16-F10 melanoma cells, the “No. of foci (melanoma tumor foci in the lung)” value is 6.11 ± 2.74. For the same compound, the “tumor load (tumor foci in the lungs)” value in the data set on B-16-F10 melanoma cells (oral 0.5 ml of 10 μM adenosine, about 54 μg/kg, with chemotherapeutic drug, FIG. 6) was “synergized with the chemotherapeutic drug to reduce the tumor load”. In the data set on white blood cells [3] (setting [9]), the GRAN was found to be 9.00% and the WBC worked out at 9.50 count × 10^3/I. In the data set with white blood cells [3] (setting [8]), the GRAN came to 10.76% and the WBC came to 7.56 count × 10^3/I. Besides, the “production of IL-12 in the presence of SAC mitogen” value in the data set on IL-12 (18 hours, FIG. 7) is “stimulated the production of IL-12”. Also, the “stimulation of IL-12 production without mitogen” value in the data set with IL-12 (no mitogen) is 19%. Also, in data set [7], the “stimulation of NK activity” value is 32%. Besides, the “NK activity of splenocytes, lysis of Yac target cells” value with NK cells is “more potent in lysing the Yac target cells”.
